Where two headings read alike, the source gives them in different places.
Biological target: c-Met (Homo sapiens, UniProt P08581)
Assay: Ki determination for the inhibition of c-Met kinase activity (standard coupled enzyme system)
Type: biochemical
Conditions: coupled enzyme system, 200 μM ATP, 80 nM c-Met, 30° C., read-out: c-Met Ki
Protocol: Ki Determination for the Inhibition of c-Met
Reactions were carried out in a solution containing 100 mM HEPES (pH 7.5), 10 mM MgCl2, 25 mM NaCl, 300 μM NADH, 1 mM DTT, and 1.5% DMSO. Final substrate concentrations in the assay were 200 μM ATP (Sigma Chemicals, St Louis, Mo.) and 10 μM polyGluTyr (Sigma Chemical Company, St. Louis). Reactions were carried out at 30° C. and 80 nM c-Met. Final concentrations of the components of the coupled enzyme system were 2.5 mM phosphoenolpyruvate, 300 μM NADH, 30 μg/ml pyruvate kinase and 10 μg/ml lactate dehydrogenase.
An assay stock buffer solution was prepared containing all of the reagents listed above with the exception of ATP and a test compound of the present invention. […] The reaction was initiated by the addition of 20 μL of ATP (final concentration 200 μM). Rates of reaction were obtained using a Molecular Devices Spectramax plate reader (Sunnyvale, Calif.) over 10 minutes at 30° C. The Ki values were determined from the rate data as a function of inhibitor concentration.

Chain of c-Met (P08581 25-1390): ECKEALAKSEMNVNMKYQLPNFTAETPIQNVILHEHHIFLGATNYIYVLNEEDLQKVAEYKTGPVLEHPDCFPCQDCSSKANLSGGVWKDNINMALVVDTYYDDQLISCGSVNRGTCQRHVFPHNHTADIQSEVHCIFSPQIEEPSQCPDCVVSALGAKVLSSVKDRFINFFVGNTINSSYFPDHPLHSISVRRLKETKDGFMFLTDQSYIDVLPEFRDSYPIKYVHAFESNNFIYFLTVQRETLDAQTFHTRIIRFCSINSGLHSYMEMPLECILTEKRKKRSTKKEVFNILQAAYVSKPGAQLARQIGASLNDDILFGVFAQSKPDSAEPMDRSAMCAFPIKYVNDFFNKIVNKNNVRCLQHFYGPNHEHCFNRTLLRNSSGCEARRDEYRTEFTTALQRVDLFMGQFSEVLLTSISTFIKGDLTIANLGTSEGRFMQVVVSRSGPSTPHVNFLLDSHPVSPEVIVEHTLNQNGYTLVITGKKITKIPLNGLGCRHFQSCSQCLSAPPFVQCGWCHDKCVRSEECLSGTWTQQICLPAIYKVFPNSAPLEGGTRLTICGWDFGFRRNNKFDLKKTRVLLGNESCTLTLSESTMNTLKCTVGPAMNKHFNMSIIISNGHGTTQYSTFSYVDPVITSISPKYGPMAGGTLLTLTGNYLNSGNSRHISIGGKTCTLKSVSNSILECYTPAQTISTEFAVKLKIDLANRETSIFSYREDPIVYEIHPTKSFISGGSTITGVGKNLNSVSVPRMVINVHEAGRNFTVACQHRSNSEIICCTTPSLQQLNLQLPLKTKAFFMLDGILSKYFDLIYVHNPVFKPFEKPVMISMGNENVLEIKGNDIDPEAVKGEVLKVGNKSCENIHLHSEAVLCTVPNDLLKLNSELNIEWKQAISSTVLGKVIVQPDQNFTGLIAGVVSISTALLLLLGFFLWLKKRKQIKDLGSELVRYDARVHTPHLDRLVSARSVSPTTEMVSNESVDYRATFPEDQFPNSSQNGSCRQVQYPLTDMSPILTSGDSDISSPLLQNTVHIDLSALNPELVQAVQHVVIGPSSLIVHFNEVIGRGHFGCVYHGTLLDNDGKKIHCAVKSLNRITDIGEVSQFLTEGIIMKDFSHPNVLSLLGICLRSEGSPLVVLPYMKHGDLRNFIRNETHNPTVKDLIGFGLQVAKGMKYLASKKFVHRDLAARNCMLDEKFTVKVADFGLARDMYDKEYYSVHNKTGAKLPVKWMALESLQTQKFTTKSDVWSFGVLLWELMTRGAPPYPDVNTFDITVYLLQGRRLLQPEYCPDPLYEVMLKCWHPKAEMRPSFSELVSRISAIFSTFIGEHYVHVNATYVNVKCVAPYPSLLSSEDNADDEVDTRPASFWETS

Structure (SMILES) | Ki | Ki (10 μM polyGluTyr)
COc1cc(Cc2nnc3sc(Nc4ccccc4OC)nn23)ccc1O [Compound 33] | – | > 2 µM
CC(c1ccc(O)cc1)c1nnc2sc(C(=O)NC3CC3)nn12 (stereo not drawn) [Compound 90] | – | > 2 µM
Oc1ccc(Cc2nnc3sc(Nc4cc(F)cc(F)c4)nn23)cc1F [Compound 131] | – | < 0.1 µM
Clc1ccc(Cc2nnc3sc(Nc4cccc(Cl)c4)nn23)cc1 [Compound 91] | – | > 2 µM
Oc1ccc(Cc2nnc3sc(Nc4cccc(F)c4)nn23)cc1F [Compound 108] | – | < 0.1 µM
CC(c1ccc(O)cc1)c1nnc2sc(C(=O)N3CCCC3)nn12 (stereo not drawn) [Compound 89] | – | > 2 µM
C[C@@H](c1ccc(O)cc1)c1nnc2sc(Nc3cccc(F)c3)nn12 [Compound 105] | – | < 0.1 µM
O=C1CCN(c2ccc3nnc(Cc4ccc(O)cc4)n3n2)CCN1 [Compound 190] | – | 0.1 to 2 µM
COc1cccc(Nc2ccc3nnc(Cc4ccc(O)c(Cl)c4)n3n2)c1 [Compound 241] | – | 0.1 to 2 µM
COc1ccc(Cc2nnc3ccc(Nc4cc(F)cc(F)c4)nn23)cc1 [Compound 252] | – | < 0.1 µM
NC(=O)C1CCCN(c2ccc3nnc(Cc4ccc(O)cc4)n3n2)C1 (stereo not drawn) [Compound 179] | – | > 2 µM
COc1ccccc1Nc1nn2c(C(C)c3ccc(O)cc3)nnc2s1 (stereo not drawn) [Compound 32] | – | 0.1 to 2 µM
Oc1ccc(Cc2nnc3ccc(Nc4ccc(Cl)cc4)nn23)cc1 [Compound 186] | – | 0.1 to 2 µM
C[C@@H](Nc1ccc2nnc(Cc3ccc(O)cc3)n2n1)C1CCCCC1 [Compound 189] | – | 0.1 to 2 µM
COc1ccc(Cc2nnc3ccc(Nc4cccc(OC)c4)nn23)cc1 [Compound 242] | – | 0.1 to 2 µM
CC(C)(C)c1cccc(Nc2ccc3nnc(Cc4ccc(O)cc4)n3n2)c1 [Compound 182] | – | < 0.1 µM
Oc1ccc(Cc2nnc3sc(NCc4ccccc4)nn23)cc1 [Compound 8] | – | 0.1 to 2 µM
COC(=O)c1cccc(Nc2nn3c(Cc4ccc(O)cc4)nnc3s2)c1 [Compound 61] | – | < 0.1 µM
Oc1ccc(Cc2nnc3ccc(N4CCC[C@H]4CN4CCCC4)nn23)cc1 [Compound 200] | – | > 2 µM
Oc1ccc(Cc2nnc3sc(NC4CC4)nn23)cc1 [Compound 19] | – | > 2 µM

Structure (SMILES) | Ki | Ki (10 μM polyGluTyr)
Cc1cccc(Nc2ccc3nnc(Cc4ccc5c(c4)OCO5)n3n2)c1 [Compound 230] | – | 0.1 to 2 µM
CC(O)c1cccc(Nc2ccc3nnc(Cc4ccc(O)cc4)n3n2)c1 (stereo not drawn) [Compound 255] | – | < 0.1 µM
CC(c1ccc(O)cc1)c1nnc2sc(Nc3cccc(Cl)c3)nn12 (stereo not drawn) [Compound 63] | – | < 0.1 µM
Oc1cccc(CCc2nnc3sc(Nc4cccc(Cl)c4F)nn23)c1 [Compound 109] | – | 0.1 to 2 µM
COC(=O)c1ccc(Nc2nn3c(Cc4ccc(O)cc4)nnc3s2)cc1 [Compound 16] | – | < 0.1 µM
CC(c1ccc(O)cc1)c1nnc2sc(Nc3cccc(Cl)c3F)nn12 (stereo not drawn) [Compound 132] | – | < 0.1 µM
COc1ccc(Nc2nn3c(Cc4ccc(O)cc4)nnc3s2)cc1 [Compound 80] | – | < 0.1 µM
Oc1ccc(Cc2nnc3sc(Nc4ccccn4)nn23)cc1 [Compound 10] | – | > 2 µM
CN(C)c1ccc(Nc2nn3c(Cc4ccc5c(c4)OCO5)nnc3s2)cc1 [Compound 85] | – | 0.1 to 2 µM
Oc1ccc(Cc2nnc3ccc(Nc4ccccc4)nn23)cc1 [Compound 178] | – | < 0.1 µM
Oc1ccc(Cc2nnc3ccc(Nc4cc(F)cc(F)c4)nn23)cc1Cl [Compound 251] | – | < 0.1 µM
COc1ccc(Cc2nnc3sc(C4CCCCN4)nn23)cc1 (stereo not drawn) [Compound 24] | – | > 2 µM
Oc1ccc(Cc2nnc3sc(NCc4cccnc4)nn23)cc1 [Compound 9] | – | 0.1 to 2 µM
CC(C)C[C@@H](CO)Nc1ccc2nnc(Cc3ccc(O)cc3)n2n1 [Compound 188] | – | 0.1 to 2 µM
Oc1ccc(Cc2nnc3ccc(N[C@@H]4C[C@H]4c4ccccc4)nn23)cc1 [Compound 192] | – | > 2 µM
COc1cccc(Nc2nn3c(Cc4ccc(O)c(Cl)c4)nnc3s2)c1 [Compound 36] | – | 0.1 to 2 µM
COc1ccc(Nc2nn3c(Cc4ccc(O)c(F)c4)nnc3s2)cc1 [Compound 64] | – | 0.1 to 2 µM
CN(C)c1nn2c(Cc3ccc(O)cc3)nnc2s1 [Compound 41] | – | > 2 µM
CC(Oc1ccc2ncccc2c1)c1nnc2sc(Nc3cccc(Cl)c3)nn12 (stereo not drawn) [Compound 163] | – | > 2 µM
CNC(=O)c1nn2c(C(C)c3ccc(O)cc3)nnc2s1 (stereo not drawn) [Compound 87] | – | > 2 µM

Other lines, results leading:

Ki | Ki (10 μM polyGluTyr) | Structure (SMILES)
> 2 µM | – | CC(C)C(=O)N1CCCC(Nc2ccc3nnc(Cc4ccc(O)cc4)n3n2)C1 (stereo not drawn) [Compound 327]
< 0.1 µM | – | Clc1cccc(Nc2ccc3nnc(C4(c5ccc6c(c5)OCO6)CC4)n3n2)c1 [Compound 400]
> 2 µM | – | O=C(Cc1ccccc1)N1CCCC(Nc2ccc3nnc(Cc4ccc(O)cc4)n3n2)C1 (stereo not drawn) [Compound 328]
0.1 to 2 µM | – | Clc1cccc(Nc2ccc3nnc(COc4cccnc4Cl)n3n2)c1 [Compound 374]
> 2 µM | – | CCOc1cccc(OCc2nnc3ccc(Nc4cccc(Cl)c4)nn23)c1 [Compound 385]
> 2 µM | – | Clc1cccc(Nc2ccc3nnc(Cn4ccc5cncnc54)n3n2)c1 [Compound 463]
> 2 µM | – | N#Cc1cccc(OCc2nnc3ccc(Nc4cccc(Cl)c4)nn23)c1 [Compound 471]
< 0.1 µM | – | Oc1ccc(Cc2nnc3ccc(Nc4cc(Cl)ccc4F)nn23)cc1 [Compound 359]
0.1 to 2 µM | – | Fc1ccc(Cc2nnc3n2N=C(c2cccs2)CS3)cc1 [Compound 546]
0.1 to 2 µM | – | Oc1cccc(NCc2nnc3ccc(Nc4cccc(Cl)c4)nn23)c1 [Compound 338]
> 2 µM | – | COc1ccc(OC)c(NCc2nnc3ccc(Nc4cccc(Cl)c4)nn23)c1 [Compound 353]
0.1 to 2 µM | – | Fc1ccc(Nc2ccc3nnc(C4(c5ccc6c(c5)OCO6)CC4)n3n2)cc1Cl [Compound 427]
> 2 µM | – | CC(=O)c1cn(Cc2nnc3ccc(Nc4cccc(Cl)c4)nn23)c2ncccc12 [Compound 480]
0.1 to 2 µM | – | Fc1ccc(Cc2nnc3ccc(Nc4cccc(Cl)c4)nn23)c(Cl)c1 [Compound 314]
< 0.1 µM | – | C[C@@H](c1ccc(O)cc1)c1nnc2ccc(Nc3nc4ccc(Cl)cc4s3)nn12 [Compound 483]
> 2 µM | – | O=C(Nc1ccc2nnc(Cc3ccc(O)cc3)n2n1)c1ccccc1 [Compound 397]
0.1 to 2 µM | – | C[C@H](Nc1ccc2nnc(Cc3ccc(O)cc3)n2n1)c1ccccc1 [Compound 310]
> 2 µM | – | COc1cc(NCc2nnc3ccc(Nc4cccc(Cl)c4)nn23)cc(OC)c1OC [Compound 346]
0.1 to 2 µM | – | Oc1ccc(NCc2nnc3ccc(Nc4cccc(Cl)c4)nn23)cc1 [Compound 412]
> 2 µM | – | NC(=O)c1ccccc1OCc1nnc2ccc(Nc3cccc(Cl)c3)nn12 [Compound 392]
– | 0.1 to 2 µM | Oc1ccc(Cc2nnc3ccc(NC4CCCC4)nn23)cc1 [Compound 269]
< 0.1 µM | – | C[C@@H](c1ccc(O)cc1)c1nnc2ccc(Sc3nc4ccccc4[nH]3)nn12 [Compound 507]

Ki | Ki (10 μM polyGluTyr) | Structure (SMILES)
> 2 µM | – | O=C1NCCCCC1Nc1ccc2nnc(Cc3ccc(O)cc3)n2n1 (stereo not drawn) [Compound 307]
< 0.1 µM | – | COc1ccc(Cl)cc1Nc1ccc2nnc(Cc3ccc(O)cc3)n2n1 [Compound 360]
> 2 µM | – | N#CCc1ccc(OCc2nnc3ccc(Nc4cccc(Cl)c4)nn23)cc1 [Compound 382]
0.1 to 2 µM | – | CC[C@H](CO)Nc1ccc2nnc(Cc3ccc(O)cc3)n2n1 [Compound 312]
0.1 to 2 µM | – | O=C(Cc1ccccc1)N1CCC(Nc2ccc3nnc(Cc4ccc(O)cc4)n3n2)CC1 [Compound 325]
> 2 µM | – | Clc1cccc(Nc2ccc3nnc(CNc4ccc5c(c4)OCCO5)n3n2)c1 [Compound 349]
0.1 to 2 µM | – | Oc1ccc(Cc2nnc3n2N=C(c2c[nH]c4ncccc24)CS3)cc1 [Compound 524]
> 2 µM | – | Fc1ccc(NCc2nnc3ccc(Nc4cccc(Cl)c4)nn23)c(Cl)c1 [Compound 342]
> 2 µM | – | O=[N+]([O-])c1ccc(Cc2nnc3ccc(Nc4cccc(Cl)c4)nn23)cc1 [Compound 475]
< 0.1 µM | – | Oc1ccc(Cc2nnc3ccc(Nc4cc(Cl)ccc4Cl)nn23)cc1 [Compound 361]
> 2 µM | – | Nc1cccc(Cc2nnc3ccc(Nc4cccc(Cl)c4)nn23)c1 [Compound 317]
> 2 µM | – | O=C(Nc1ccc2nnc(Cc3ccc(O)cc3)n2n1)C1CCCCC1 [Compound 399]
0.1 to 2 µM | – | CCc1nnc(Nc2ccc3nnc([C@@H](C)c4ccc(O)cc4)n3n2)s1 [Compound 515]
> 2 µM | – | O=C(O)c1cn(Cc2nnc3ccc(Nc4cccc(Cl)c4)nn23)c2ccccc12 [Compound 461]
> 2 µM | – | Oc1ccc2[nH]cc(Cc3nnc4ccc(Nc5cccc(Cl)c5)nn34)c2c1 [Compound 458]
> 2 µM | – | Oc1ccc(Cc2nnc3ccc(NC4CCNCC4)nn23)cc1 [Compound 322]
0.1 to 2 µM | – | CC(=O)N[C@H]1CCCC[C@H]1Nc1ccc2nnc([C@@H](C)c3ccc(O)cc3)n2n1 [Compound 446]
– | 0.1 to 2 µM | CC(C)Nc1ccc2nnc(Cc3ccc(O)cc3)n2n1 [Compound 276]
0.1 to 2 µM | – | COCCC(=O)N[C@H]1CCCC[C@H]1Nc1ccc2nnc([C@@H](C)c3ccc(O)cc3)n2n1 [Compound 447]
0.1 to 2 µM | – | CC[C@@H](CO)Nc1ccc2nnc(Cc3ccc(O)cc3)n2n1 [Compound 308]
> 2 µM | – | CC(=O)N1CCCC(Nc2ccc3nnc(Cc4ccc(O)cc4)n3n2)C1 (stereo not drawn) [Compound 326]
0.1 to 2 µM | – | CC(=O)N[C@@H]1CCCC[C@@H]1Nc1ccc2nnc([C@@H](C)c3ccc(O)cc3)n2n1 [Compound 444]

Source: patent publication US7998987B2, “Inhibitors of c-Met and uses thereof” (Vertex Pharmaceuticals Incorporated, priority 2005, dated 2011)
